Where two headings read alike, the source gives them in different places.
Experiments:
[1] = molecular target: T1, p75^NTR (Rattus norvegicus, UniProt P07174); assay: 125I-BDNF crosslinking to p75^NTR receptors on nnr5 cells; format: binding; conditions: 0.1 nM 125I-BDNF, 2 h at 4° C., read-out: IC50 (mean±S.E.M), inhibition of 125I-BDNF crosslinking to p75^NTR
T1 construct: ^125I-BDNF crosslinking to p75^NTR receptors on nnr5 cells expressing p75^NTR; endogenous in cells; host or cells: PC12^nnr5 cells (TrkB-transfected)
T1 sequence (P07174 30-425): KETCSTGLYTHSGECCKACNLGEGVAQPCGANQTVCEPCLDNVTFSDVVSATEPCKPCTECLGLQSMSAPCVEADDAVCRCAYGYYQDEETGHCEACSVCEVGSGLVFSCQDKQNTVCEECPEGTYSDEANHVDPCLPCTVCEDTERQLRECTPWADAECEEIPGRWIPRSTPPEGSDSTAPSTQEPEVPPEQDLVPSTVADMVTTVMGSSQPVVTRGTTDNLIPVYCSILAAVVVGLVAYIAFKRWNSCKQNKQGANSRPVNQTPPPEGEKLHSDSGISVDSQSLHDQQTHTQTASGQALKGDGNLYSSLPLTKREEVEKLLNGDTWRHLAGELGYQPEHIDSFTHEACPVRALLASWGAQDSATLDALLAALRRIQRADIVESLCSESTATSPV
T1 sequence (P23560 129-247 partner): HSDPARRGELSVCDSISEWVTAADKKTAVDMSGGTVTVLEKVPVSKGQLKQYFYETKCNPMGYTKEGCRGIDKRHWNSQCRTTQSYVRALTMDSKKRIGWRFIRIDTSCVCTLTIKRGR
Protocol: Cells were incubated at 37° C. in 5% CO2. PC12 and PC12^nnr5 cells were maintained in RPMI-1640 medium supplemented with 10% fetal calf serum (FCS); cells were harvested by replacing the medium with calcium-magnesium-free balanced salt (Gey's) solution and incubating at 37° C. for 15 min. NIH-3T3 cells were grown in Dulbecco's modified Eagle medium: F12 containing 5% FCS; cells were harvested by replacing the medium with a 0.25% trypsin-0.53 mM ethylenediaminetetraacetic acid (EDTA) solution and incubating at 37° C. for 5 min.
The full-length TrkB cDNA was cloned into the CMV plasmid vector. Transient expression of TrkB in PC12^nnr5 cells was achieved by transfecting the cells with the TrkB expression vector using Lipofectamine Plus reagents (Invitrogen Canada Inc; Burlington, ON). PC12^nnr5 cells were passed through a syringe fitted with a 21-gauge needle several times to prevent clumping. In a 100 mm dish, 10×10^6 cells were plated and used for transfection the next day. […]
PC12 cells or TrkB-expressing PC12^nnr5 cells were recovered using Gey's solution, pelleted by centrifugation, and suspended in HKR (HEPES-Krebs Ringer Solution; [10 mM HEPES, 125 mM NaCl, 4.8 mM KCl, 1.3 mM CaCl2.2H2O, 1.2 mM MgSO4, 1.2 mM KH2PO4, 1 mg/mL BSA, 1 mg/mL glucose, pH 7.35]). […] Dried gels were registered to the autoradiograph and each labeled protein band was quantified by direct gamma counting. […]

[2] = molecular target: T2, p75^NTR receptors (PC12 cells) (Rattus norvegicus, UniProt P07174); assay: Basic screening assay: binding of 125I-BDNF to PC12 cells; conditions: for 125I-BDNF Binding (% binding): Example 3 table; for activity at 50 µM: read-out: BDNF Activity % Maximal Binding
T2 construct: endogenous in cells; host or cells: PC12 cells
T2 sequence (P07174 30-425): T1 sequence (P07174 30-425)
T2 sequence (P23560 129-247 partner): T1 sequence (P23560 129-247 partner)
Method in brief: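 4×10^6 PC12 cells incubated 2 h at 4° C, rotating, with 0.5 nM ^125I-BDNF (final) and compound at 50 μM, in duplicate or more. Bound ligand separated through 10% glycerol by centrifugation and counted by gamma counter; specific binding is Bmax minus NSB; inhibitors followed up for EC50.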

[3] = system: p75; assay: Neurotrophin-receptor crosslinking assay, 125I-NGF (Example 3); format: binding; conditions: for 125I-NGF X-linking Sample (% binding): crosslinked sample counted on gamma counter; for 125I-NGF X-linking p75 band (% binding): p75 band counted on gamma counter
Protocol: (§1) PC12 cells or TrkB-expressing PC12^nnr5 cells were recovered using Gey's solution, pelleted by centrifugation, and suspended in HKR (HEPES-Krebs Ringer Solution; [10 mM HEPES, 125 mM NaCl, 4.8 mM KCl, 1.3 mM CaCl2.2H2O, 1.2 mM MgSO4, 1.2 mM KH2PO4, 1 mg/mL BSA, 1 mg/mL glucose, pH 7.35]). In a total volume of 1 mL, 1×10^6 cells were incubated, rotating, with 0.1 nM ^125I-BDNF or ^125I-NGF and additions (Compound A or Compound B at the indicated final concentrations) for 2 h at 4° C. At the conclusion of the binding reaction, a 20 μL volume of BS^3 was added to a final concentration of 0.4 mM and incubated, rocking, for an additional 30 min at room temperature. Cells were washed twice in TBS. For analysis of ^125I-NGF crosslinking to TrkA, ^125I-NGF crosslinking to p75^NTR, and ^125I-BDNF crosslinking to p75^NTR, samples were solubilized directly in SDS sample buffer and heated for 10 min at 95° C. For analysis of ^125I-BDNF crosslinking to TrkB, samples were immunoprecipitated with a pan-Trk antibody. All samples were electrophoresed on a 6% SDS-polyacrylamide gel, dried, and autoradiographed. Dried gels were registered to the autoradiograph and each labeled protein band was quantified by direct gamma counting. Non-linear regression analysis was performed by Prism 3.0 to generate concentration-effect curves and determine IC50 values.
(§2) The neurotrophin-receptor crosslinking assay described in Example 1 was used to determine binding of compounds 65, 3, 43 and 97 to ^125I-NGF and ^125I-BDNF.
(§3) ^1The p75 band was excised from the gel and cpm were determined on a gamma counter. Values were calculated as follows: [formula]
(§4) ^2An aliquot of the total crosslinked sample in SDS-sample buffer was counted on a gamma counter. Values were calculated as follows: [formula]

[4] = system: p75^NTR receptors (PC12 cells); assay: Basic screening assay: binding of 125I-NGF to PC12 cells; conditions: for 125I-NGF Binding (% binding): Example 3 table; for NGF Activity % Maximal Binding: test compound 50 μM, 0.5 nM 125I-NGF, PC12 cells, 2 h at 4° C., specific binding as percent of control
Method in brief: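 PC12 cells (4×10^6) incubated 2 h at 4° C with 0.5 nM 125I-NGF and test compound at 50 μM, rotating. Bound tracer pelleted through 10% glycerol and gamma-counted; specific binding expressed as percent of control after NSB subtraction.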

[5] = system: p75; assay: Neurotrophin-receptor crosslinking assay, 125I-BDNF (Example 3); format: binding; conditions: for 125I-BDNF X-linking Sample (% binding): crosslinked sample counted on gamma counter; for 125I-BDNF X-linking p75 band (% binding): p75 band counted on gamma counter
Protocol: as §1, §2, §3, §4

Row | Compound | IC50 [1] [µM] | 125I-BDNF Binding (% binding) [2] | activity at 50 µM [2] [%] | 125I-NGF X-linking Sample (% binding) [3] | 125I-NGF X-linking p75 band (% binding) [3] | 125I-NGF Binding (% binding) [4] | NGF Activity % Maximal Binding ([4]; Table 2) | 125I-BDNF X-linking Sample (% binding) [5] | 125I-BDNF X-linking p75 band (% binding) [5] | activity at 50 µM ([2]; Table 4, test compound 50 μM, 0.5 nM 125I-BDNF, PC12 cells, 2 h at 4° C., specific binding as percent of control) [%] | NGF Activity % Maximal Binding ([4]; Table 4)
1 | COc1ccc(-c2ccc(C=C3C(=O)N(c4ccc(C(=O)O)cc4)N=C3C)o2)c([N+](=O)[O-])c1 (racemic) [Compound A, 4-{4-[5-(4-Methoxy-2-nitro-phenyl)-furan-2-ylmethylene]-3-methyl-5-oxo-4,5-dihydro-pyrazol-1-yl}-benzoic acid] | 15.64 ± 0.05 |  |  |  |  |  |  |  |  |  | 
2 | O=C1NC(=S)NC(=O)C1=Cc1ccc(-c2ccc(C(=O)O)c(Cl)c2)o1 [Compound 65, 2-Chloro-4-[5-(4,6-dioxo-2-thioxo-tetrahydro-pyrimidin-5-ylidenemethyl)furan-2-yl]benzoic acid] |  | XXXXX (0 < XXXXX < 10) | 0 to 10 | * (50 < *) | * (50 < *) | XXX (20 < XXX < 30) | XXX (20 < XXX < 30) | XXXXX (0 < XXXXX < 10) | XXXXX (0 < XXXXX < 10) |  | 
3 | O=C1NC(=O)/C(=C\c2ccc(-c3ccc(Cl)c([N+](=O)[O-])c3)o2)S1 [Compound 97, 5-[5-(4-Chloro-3-nitrophenyl)furan-2-ylmethylene]-thiazolidine-2,4-dione] |  | * (50 < *) |  | * (50 < *) | * (50 < *) | * (50 < *) |  | * (50 < *) | XX (30 < XX < 40) | > 50 | * (50 < *)
4 | NS(=O)(=O)c1ccc(-c2ccc(/C=C3/SC(=S)N(CCC(=O)O)C3=O)o2)cc1 [Compound B] | 10.56 ± 0.05 |  |  |  |  |  |  |  |  |  | 
